We go through four compounds from patent US12351559B2 (Biohaven Therapeutics Ltd., priority 2014, dated 2025).

For the test, the target named is T1, Kv7.2/7.3 (Homo sapiens, UniProt O43525+O43526).
T1 construct: host or cells: HEK cells, tetracycline-inducible expression
The test can be described thus: Kv7.2/7.3 activation assay, QPatch planar patch-clamp, single concentration screen. Particulars: Kv7.2/Kv7.3 co-expressing HEK cells, compound 3 μM, steady-state current at end of 2 s pulse to −30 mV. It counts as cell-based. The arrangement: key: <1.2-fold increase over baseline (−); +/−: as a range from <1.2-fold increase over baseline (−) up to >6-fold increase over baseline (+++); as a range from <1.2-fold increase over baseline (−) up to >6-fold increase over baseline (+++); as a range from <1.2-fold increase over baseline (−) up to >6-fold increase over baseline (+++); >6-fold increase over baseline (+++).

`Cc1cc2nc(NC(=O)C[C@](C)(O)c3ccccc3)n(C3CCC3)c2cc1C#N` [Example 123, (S)-N-(6-cyano-1-cyclobutyl-5-methyl-1H-benzo[d]imidazol-2-yl)-3-hydroxy-3-phenylbutanamide]: the “Kv7.2/7.3 Activity: increase in current over baseline” value (“Kv7.2/7.3 Activity: increase” for short) is “+/−”.

As to `O=C(CC1(O)CCC1)Nc1nc2ccc(C(F)(F)F)cc2n1-c1ccc(OC(F)(F)F)c(F)c1` [Example 145, N-(1-(3-fluoro-4-(trifluoromethoxy)phenyl)-6-(trifluoromethyl)-1H-benzo[d]imidazol-2-yl)-2-(1-hydroxycyclobutyl)acetamide], the “Kv7.2/7.3 Activity: increase” value was “++”.

In the case of `CC1(C)CCC[C@@H](CC(=O)Nc2nc3ccc(C(C)(C)O)cc3n2C2CCC2)O1` [Example 83, (S)-N-(1-cyclobutyl-6-(2-hydroxypropan-2-yl)-1H-benzo[d]imidazol-2-yl)-2-(6,6-dimethyltetrahydro-2H-pyran-2-yl)acetamide], the “Kv7.2/7.3 Activity: increase” value is recorded as “++”.

As to `CC(C)(C)CC(=O)Nc1nc2ccc(C#N)cc2n1-c1ccc(F)cn1` [Example 74, N-(6-cyano-1-(5-fluoropyridin-2-yl)-1H-benzo[d]imidazol-2-yl)-3,3-dimethylbutanamide], the “Kv7.2/7.3 Activity: increase” value is recorded as “+”.
